Assays:
TDP1 [1] = target: T1, TDP1 (Homo sapiens, UniProt Q9NUW8); assay: Real-time fluorescence assay of TDP1 activity; type: biochemical; conditions: real-time fluorescent assay, 1.5 nM TDP1, 50 nM oligonucleotide; read-out: IC50 (TDP1)
T1 construct: made in house; host or cells: E. coli
Description: We tested UA and all 14 newly synthesized UA derivatives for their TDP1 inhibitory properties by measuring their IC50 values using a real-time fluorescent assay. […] Compounds 10a,b are sulfoxide analogs of 7g,h.
Human recombinant tyrosyl-DNA phosphodiesterase 1 (TDP1) and human recombinant poly(ADP-ribose)-polymerase1 (PARP1) were expressed in the E. coli system and purified as described.
(§1) The biosensor (5′-[FAM] AAC GTC AGGGTC TTC C [BHQ]-3′) was synthesized in the Laboratory of Nucleic Acid Chemistry at the Institute of Chemical Biology and Fundamental Medicine (Novosibirsk, Russia) and was used for TDP1 enzyme activity real-time fluorescence detection. The reaction mixture (200 μL) contained a TDP1 reaction buffer (50 mM Tris-HCl, pH 8.0, 50 mM NaCl, and 7 mM β-mercaptoethanol), 50 nM oligonucleotide, varied concentrations of the tested compounds, and purified TDP1 in a final concentration 1.5 nM. The reaction mixtures were incubated at a constant temperature of 26 °C in a POLARstar OPTIMA fluorimeter (BMG LABTECH, GmbH, Ortenberg, Germany). Fluorescence intensity was measured (Ex485/Em520 nm) every 1 min for 10 min. The average values of the half maximal inhibitory concentration (IC50) were determined using an eleven-point concentration response curve and calculated using MARS Data Analysis 2.0 (BMG LABTECH). The 50% inhibitory concentration (IC50) was defined as the concentration of the compound that inhibited 50% of the enzyme activity when compared to the untreated controls. At least three independent experiments were carried out to obtain the IC50 values. To determine the kinetic parameters of the TDP1 enzymatic reaction, the apparent maximum rate of enzymatic reaction (Vmax), Michaelis constant (KM), possible inhibition mechanism, and steady-state kinetic experiments were carried out at 5 fixed concentrations of the substrate, with variation in the inhibitor concentrations. The standard reaction mixtures (200 μL) contained reaction buffer components; 50 nM, 100 nM, 200 nM, 500 nM, or 1000 nM substrate; an inhibitor; and 1.5 nM recombinant human TDP1. The initial kinetic curves were obtained in three independent experiments and statistically processed in OriginPro 8.6.0 (OriginLab, Northampton, MA, USA).

TDP1 [2] = target: T1, TDP1; assay: Steady-state kinetics of the TDP1 reaction (Vmax, KM, type of inhibition); type: biochemical; parameters: Vmax: unit not given here; conditions: for Type of inhibition of TDP1 enzyme reaction: steady-state conditions, fall in both Vmax and KM with increasing inhibitor
Description: The reversible enzyme inhibitors were classified as competitive, uncompetitive, non-competitive, or mixed, depending on the binding of the enzyme, to the enzyme–substrate complex (ES) or to the enzyme–substrate–inhibitor triple complex (ESI). The enzyme could bind the inhibitor at the different steps of catalysis (before or after the substrate) and at the substrate-binding site or another site. The effect of the inhibitor on enzymatic activity can be analyzed using graphical representations of the Michaelis–Menten equation. […] TDP1 has a catalytic pocket with a narrow positively charged cleft where it binds DNA and with a relatively large cleft that contains a mixed charge distribution for the TOP1 fragment binding. It is known that TDP1 hydrolyzes the DNA–TOP1 adducts via two coordinated nucleophilic attacks of two His residues (His263 and His493) with the covalent intermediate complex formation. The enzyme reaction catalyzed by TDP1 could be inhibited in two steps: the first one is the inhibition of the TDP1 binding to the DNA substrate (the nucleophilic attack of His263). The second step is releasing TDP1 from the transition complex (nucleophilic attack by a water molecule activated by His493). Inhibition of the second step prevents the release of the DNA 3′-phosphate product from the DNA–TDP1 complex. Spinocerebellar ataxia with axonal neuropathy (SCAN1) is a neurological disease that is caused by a TDP1 His493Arg mutation. This mutation prevents the second step of hydrolysis of the intermediate complex and the enzyme remains covalently bound to DNA [47]. The uncompetitive inhibitors also prevent the second step of the reaction, stabilizing the enzyme–DNA covalent complex, which can lead to the accumulation of the single-strand breaks in the cell.
as §1
Table S25 Dependence of TDP1 reaction values V max and K M on the concentration of inhibitors
[7g], mM V max Standard Error K M Standard Error
[7h], mM V max Standard Error K M Standard Error
[10a], mM V max Standard Error K M Standard Error
[10b], mM V max Standard Error K M Standard Error

[3] = EZ4U colorimetric cytotoxicity test, HEK293A; type: cell-based; conditions: human, HEK293A cells; intrinsic cytotoxicity, 3 days; read-out: HEK293A CC50
Description: (§2) The low intrinsic cytotoxicity of the additional drug component in the clinically used anticancer cocktails with traditional drugs is very important for treatment. This approach in chemotherapy can reduce the potential resulting toxic load on the body in the case of a combined action of these inhibitors on the activity of several targets. […] The effects of the tested compounds on cell survival are shown on Figure 4 and the CC50 values for three cell lines are shown in Table 1. The intrinsic cytotoxicity of a number of the studied compounds is quite high, namely, they have close IC50 values against the TDP1 and CC50 values on one or several studied cell lines. Most of the compounds generally were more toxic for the HEK293FT and HeLa cell lines than for the HEK293A cell line (Table 1 and Figure 4). The cytotoxicity of the three leader compounds, 7g, 10a, and 7h, was quite high. […] Compound 10b was one of the least toxic among the ten tested compounds.
(§3) Cytotoxicity of the compounds was examined against human cell lines HEK293A (human embryonic kidney)—WT, TDP1 deficient (Tdp1-/-), PARP1 deficient (PARP1-/-), and HeLa (cervical cancer) using an EZ4U colorimetric test (Biomedica, Vienna, Austria). The HEK293A cell line was obtained from Thermo Fisher Scientific (Waltham, MA, USA), and the HeLa cell line was obtained from the Russian Cell Culture Collection (RCCC) Institute of Cytology RAS, St. Petersburg, Russia. The cells were grown in DMEM/F12 medium (Gibco, Thermo Fisher Scientific, Waltham, MA, USA), with 1x GlutaMAX (Gibco, Thermo Fisher Scientific, Waltham, MA, USA), 50 IU/mL penicillin, 50 μg/mL streptomycin (MP Biomedicals), and in the presence of 10% fetal bovine serum (Biolot, Saint-Petersburg, Russia) in a 5% CO2 atmosphere. Cells were grown in the presence of 1% DMSO in the control wells. After the formation of a 30–50% monolayer, the tested compounds were added to the medium, and the cell culture was monitored for 3 days. The values were normalized to their own control in each case. At least three independent experiments were carried out. The 50% cytotoxic concentration (CC50) was defined as the compound concentration that reduced the cell viability by 50% when compared to the untreated controls. The compound concentration that caused 50% cell growth inhibition was determined using OriginPro 8.6.0 software (OriginLab, Northampton, MA, USA). The measurements were carried out in three independent experiments.

[4] = Colorimetric cytotoxicity test, HEK293FT; type: cell-based; conditions: human, HEK293FT cells, intrinsic cytotoxicity
Description: as §2, §3

[5] = EZ4U colorimetric cytotoxicity test, HeLa; type: cell-based, human; conditions: human, HeLa cells; intrinsic cytotoxicity, compound alone, 3 days
Description: as §2, §3

TDP1 [6] = tested on: TDP1; parameters: method as in PMID 27933897, PMID 30076000, PMID 31619021, doi:10.1134/S1068162017010125, PMID 30396105; conditions: cited from earlier work
[7] = inhibitor 0.4 mM (so in the source)
[8] = inhibitor 0.8 mM (so in the source)
[9] = inhibitor 1.6 mM (so in the source)
[10] = inhibitor 3.2 mM (so in the source)
[11] = inhibitor 6.4 mM (so in the source)

T1 sequence (Q9NUW8 whole entry): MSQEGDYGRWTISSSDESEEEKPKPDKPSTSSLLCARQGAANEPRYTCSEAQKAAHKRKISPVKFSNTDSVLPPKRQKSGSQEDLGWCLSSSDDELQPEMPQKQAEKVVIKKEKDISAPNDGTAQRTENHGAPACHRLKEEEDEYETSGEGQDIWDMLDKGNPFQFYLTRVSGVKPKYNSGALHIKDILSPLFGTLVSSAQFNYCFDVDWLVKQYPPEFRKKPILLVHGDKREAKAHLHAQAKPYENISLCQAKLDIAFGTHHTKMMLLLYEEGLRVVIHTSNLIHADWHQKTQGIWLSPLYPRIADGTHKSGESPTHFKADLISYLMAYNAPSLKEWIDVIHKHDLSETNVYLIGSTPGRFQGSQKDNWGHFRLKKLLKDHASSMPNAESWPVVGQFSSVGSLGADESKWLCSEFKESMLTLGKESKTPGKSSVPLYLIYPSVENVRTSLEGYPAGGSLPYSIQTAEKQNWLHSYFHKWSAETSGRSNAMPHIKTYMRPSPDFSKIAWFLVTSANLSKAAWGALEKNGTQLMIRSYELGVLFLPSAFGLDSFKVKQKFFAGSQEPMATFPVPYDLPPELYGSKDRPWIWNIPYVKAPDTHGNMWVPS

| SMILES | IC50 (TDP1 [1]) | CC50 at 3 days [3] | CC50 at 3 days [4] | CC50 at 3 days [5] | also measured |
| --- | --- | --- | --- | --- | --- |
| CC(=O)C1=C(O)C=C2Oc3c(C(=O)CSc4nnc[nH]4)c(O)c(C)c(O)c3C2(C)C1=O (stereo not shown) [7d] | 25.2 ± 6.5 µM |  |  |  |  |
| CC(=O)C1=C(O)C=C2Oc3c(C(=O)C[S+]([O-])c4ccc(Cl)cc4)c(O)c(C)c(O)c3[C@@]2(C)C1=O (stereo partly shown) [10b] |  | > 50 µM | 20 ± 3 µM | 27 ± 2 µM | Vmax (TDP1 [2]; inhibitor 0.2 mM (so in the source)): 18.7; Vmax (TDP1 [2]; [7]): 10.7; Vmax (TDP1 [2]; [8]): 8.5; Vmax (TDP1 [2]; [9]): 6.3; Type of inhibition of TDP1 enzyme reaction (TDP1 [2]): uncompetitive |
| CC(=O)C1=C(O)C=C2Oc3c(C(=O)CSc4ncccc4C(=O)O)c(O)c(C)c(O)c3C2(C)C1=O (stereo not shown) [7k] | 19.6 ± 2.8 µM |  |  |  |  |
| CC(=O)C1=C(O)C=C2Oc3c(C(=O)CSc4nnc(N)s4)c(O)c(C)c(O)c3[C@@]2(C)C1=O [7c, (2R)-4-acetyl-10-{2-[(5-amino-1,3,4-thiadiazol-2-yl)sulfanyl]acetyl}-5,11,13-trihydroxy-2,12-dimethyl-8-oxatricyclo[7.4.0. 0^2,7]trideca-1(13),4,6,9,11-pentaen-3-one] | 4.3 ± 0.5 µM | > 50 µM | 35 ± 2 µM | 33 ± 2 µM |  |
| CC(=O)C1=C(O)C=C2Oc3c(C(=O)CSc4ncccn4)c(O)c(C)c(O)c3[C@@]2(C)C1=O [7j, (2R)-4-acetyl-5,11,13-trihydroxy-2,12-dimethyl-10-[2-(pyrimidin-2-ylsulfanyl)acetyl]-8-oxatricyclo[7.4.0. 0^2,7]trideca-1(13),4,6,9,11-pentaen-3-one] | 16.9 ± 2.4 µM |  |  |  |  |
| CC(=O)C1=C(O)C=C2Oc3c(C(=O)CSc4nc5ccccc5[nH]4)c(O)c(C)c(O)c3[C@@]2(C)C1=O [7f, (2R)-4-acetyl-10-[2-(1H-1,3-benzodiazol-2-ylsulfanyl)acetyl]-5,11,13-trihydroxy-2,12-dimethyl-8-oxatricyclo[7.4.0.0^2,7]trideca-1(13),4,6,9,11-pentaen-3-one] | 2.4 ± 1 µM | > 50 µM | 10 ± 2 µM | 13 µM |  |
| CC(=O)C1=C(O)C=C2Oc3c4c(c(C)c(O)c3[C@@]2(C)C1=O)O/C(=C\c1ccc(Br)cc1)C4=O [compound 3] |  |  |  |  | IC50 (TDP1 [6]): 0.15 µM |
| CC(=O)C1=C(O)C=C2Oc3c(C(=O)CSC(=S)N(C)C)c(O)c(C)c(O)c3[C@@]2(C)C1=O [7a, (2R)-4-acetyl-10-{2-[(dimethylcarbamothioyl)sulfanyl]acetyl}-5,11,13-trihydroxy-2,12-dimethyl-8-oxatricyclo [7.4.0.0^2,7]trideca-1(13),4,6,9,11-pentaen-3-one] | 5.4 ± 2.9 µM | > 50 µM | > 50 µM | 13 ± 0.5 µM |  |
| CC(=O)C1=C(O)C=C2Oc3c(C(=O)CSc4nc5ccccc5o4)c(O)c(C)c(O)c3C2(C)C1=O (stereo not shown) [7e] | 3.2 ± 0.5 µM | 26 ± 2 µM | 4.5 ± 1 µM | 2.9 ± 0.2 µM |  |
| CC(=O)C1=C(O)C=C2Oc3c(C(=O)CSC4=NCCS4)c(O)c(C)c(O)c3[C@@]2(C)C1=O [7b, (2R)-4-acetyl-10-[2-(4,5-dihydro-1,3-thiazol-2-ylsulfanyl)acetyl]-5,11,13-trihydroxy-2,12-dimethyl-8-oxatricyclo[7.4.0.0^2,7]trideca-1(13),4,6,9,11-pentaen-3-one] | 4.4 ± 1 µM | > 50 µM | 16 ± 5 µM | 11 ± 0.5 µM |  |
| CC(=O)c1c(O)c(C)c(O)c2c1OC1=CC(=O)/C(=C(/C)NCCCc3cc(C(C)(C)C)c(O)c(C(C)(C)C)c3)C(=O)[C@@]12C [compound 2] |  |  |  |  | IC50 (TDP1 [6]): 0.16 µM |
| CC(=O)C1=C(O)C=C2Oc3c(C(=O)CSc4ccc(Cl)cc4)c(O)c(C)c(O)c3C2(C)C1=O (stereo not shown) [7h] | 2.2 ± 0.5 µM | 10 ± 2 µM | 4 ± 1 µM | 2.5 ± 0.5 µM | Vmax (TDP1 [2]; [7]): 31.0; Vmax (TDP1 [2]; [8]): 26.7; Vmax (TDP1 [2]; [9]): 18.5; Vmax (TDP1 [2]; [10]): 15.3; Vmax (TDP1 [2]; [11]): 11.2; Type of inhibition of TDP1 enzyme reaction (TDP1 [2]): uncompetitive |
| CC(=O)C1=C(O)C=C2Oc3c(C(=O)CSc4ccccn4)c(O)c(C)c(O)c3[C@@]2(C)C1=O [7i, (2R)-4-acetyl-5,11,13-trihydroxy-2,12-dimethyl-10-[2-(pyridin-2-ylsulfanyl)acetyl]-8-oxatricyclo[7.4.0. 0^2,7]trideca-1(13),4,6,9,11-pentaen-3-one] | 11.9 ± 0.4 µM |  |  |  |  |
| CC(=O)C1=C(O)C=C2Oc3c(C(=O)CSc4nc5ccccc5s4)c(O)c(C)c(O)c3C2(C)C1=O (stereo not shown) [7g] | 1.7 ± 0.6 µM | 3.5 ± 0.3 µM | 3 ± 1 µM | 2 ± 0.6 µM | Vmax (TDP1 [2]; [7]): 35.4; Vmax (TDP1 [2]; [8]): 25.6; Vmax (TDP1 [2]; [9]): 23.0; Vmax (TDP1 [2]; [10]): 19.4; Vmax (TDP1 [2]; [11]): 10.9; Type of inhibition of TDP1 enzyme reaction (TDP1 [2]): uncompetitive |
| CC(=O)C1=C(O)C=C2Oc3c(C(=O)CSC#N)c(O)c(C)c(O)c3[C@@]2(C)C1=O [compound 5] |  |  |  |  | IC50 (TDP1 [6]): 1.16 µM |

— publication PMC8583042, “New Hybrid Compounds Combining Fragments of Usnic Acid and Thioether Are Inhibitors of Human Enzymes TDP1, TDP2 and PARP1” (International Journal of Molecular Sciences, 2021)
